In test [1] the target is T1, Sphingosine 1-phosphate receptor 4 (Homo sapiens, UniProt O95977).
T1 sequence (O95977 whole entry): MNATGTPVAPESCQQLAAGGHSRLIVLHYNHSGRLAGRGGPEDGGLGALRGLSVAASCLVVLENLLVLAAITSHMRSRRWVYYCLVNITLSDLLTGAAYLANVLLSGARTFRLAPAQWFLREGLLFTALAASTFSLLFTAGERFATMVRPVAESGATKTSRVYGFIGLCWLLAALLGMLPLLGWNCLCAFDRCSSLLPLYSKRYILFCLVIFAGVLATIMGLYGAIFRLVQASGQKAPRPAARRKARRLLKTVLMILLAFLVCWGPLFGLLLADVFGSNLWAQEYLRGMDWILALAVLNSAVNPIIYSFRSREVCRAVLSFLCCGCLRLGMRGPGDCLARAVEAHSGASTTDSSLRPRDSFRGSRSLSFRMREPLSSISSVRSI
Kind of test: Activity at human recombinant S1P4 receptor expressed in CHO cells assessed as increase in calcium release by FLIPR assay. Type of test: functional, cell-based.

Test [2] addresses T2, Sphingosine kinase 2 (Homo sapiens) (UniProt Q9NRA0).
T2 sequence (whole entry): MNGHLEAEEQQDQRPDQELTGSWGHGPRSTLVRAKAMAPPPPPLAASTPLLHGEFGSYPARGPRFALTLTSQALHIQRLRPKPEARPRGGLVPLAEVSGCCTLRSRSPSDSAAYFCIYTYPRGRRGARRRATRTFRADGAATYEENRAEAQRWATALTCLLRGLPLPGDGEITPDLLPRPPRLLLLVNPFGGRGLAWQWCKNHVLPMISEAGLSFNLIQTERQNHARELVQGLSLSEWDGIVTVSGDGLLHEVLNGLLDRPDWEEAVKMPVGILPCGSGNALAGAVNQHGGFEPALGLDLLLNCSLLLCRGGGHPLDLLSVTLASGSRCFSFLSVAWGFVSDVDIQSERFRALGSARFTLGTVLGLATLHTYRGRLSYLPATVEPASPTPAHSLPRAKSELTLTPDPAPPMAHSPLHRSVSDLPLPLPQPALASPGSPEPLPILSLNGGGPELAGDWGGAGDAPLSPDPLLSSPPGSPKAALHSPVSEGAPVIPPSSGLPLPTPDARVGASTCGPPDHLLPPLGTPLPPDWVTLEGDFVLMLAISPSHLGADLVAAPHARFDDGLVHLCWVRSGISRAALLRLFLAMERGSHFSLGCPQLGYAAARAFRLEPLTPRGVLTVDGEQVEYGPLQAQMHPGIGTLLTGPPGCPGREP
Kind of test: Effect on rate of phosphorylation of human recombinant SPHK2 expressed in HEK293 cells. Type of test: cell-based.

Test [3] deals with Sphingosine 1-phosphate receptor 1 (Homo sapiens, UniProt P21453). As to the kind of experiment: Activity at human recombinant S1P1 receptor expressed in CHO cells assessed as increase in calcium release by FLIPR assay. Type of test: functional, cell-based.
Chain of Sphingosine 1-phosphate receptor 1 (P21453 whole entry): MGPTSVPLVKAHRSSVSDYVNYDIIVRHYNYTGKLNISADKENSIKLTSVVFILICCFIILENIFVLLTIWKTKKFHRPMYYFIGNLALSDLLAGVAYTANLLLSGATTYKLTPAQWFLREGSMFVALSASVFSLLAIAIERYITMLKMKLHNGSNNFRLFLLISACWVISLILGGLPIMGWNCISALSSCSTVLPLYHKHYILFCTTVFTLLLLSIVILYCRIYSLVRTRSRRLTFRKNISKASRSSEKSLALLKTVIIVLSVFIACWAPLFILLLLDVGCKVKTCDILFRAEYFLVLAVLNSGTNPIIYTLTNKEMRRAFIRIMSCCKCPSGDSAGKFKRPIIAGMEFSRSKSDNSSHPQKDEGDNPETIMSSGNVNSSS
For test [4], the target named is Sphingosine 1-phosphate receptor 3 (Homo sapiens, UniProt Q99500). As to the kind of experiment: Activity at human recombinant S1P3 receptor expressed in CHO cells assessed as increase in calcium release by FLIPR assay. Type of test: functional, cell-based.
Chain of Sphingosine 1-phosphate receptor 3 (Q99500 whole entry): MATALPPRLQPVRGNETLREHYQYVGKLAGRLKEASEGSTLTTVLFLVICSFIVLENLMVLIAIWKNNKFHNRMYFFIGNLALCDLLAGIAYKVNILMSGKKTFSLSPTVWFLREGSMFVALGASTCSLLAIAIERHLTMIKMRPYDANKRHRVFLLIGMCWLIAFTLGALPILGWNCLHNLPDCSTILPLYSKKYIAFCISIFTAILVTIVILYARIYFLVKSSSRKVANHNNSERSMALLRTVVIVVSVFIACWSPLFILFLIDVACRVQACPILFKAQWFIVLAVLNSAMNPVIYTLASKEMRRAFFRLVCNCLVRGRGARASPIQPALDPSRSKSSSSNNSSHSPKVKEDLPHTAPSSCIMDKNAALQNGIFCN
In test [5] the target is Sphingosine 1-phosphate receptor 5 (Homo sapiens, UniProt Q9H228). Kind of test: Activity at human recombinant S1P5 receptor expressed in CHO cells assessed as increase in calcium release by FLIPR assay. It counts as functional, cell-based.
Chain of Sphingosine 1-phosphate receptor 5 (Q9H228 whole entry): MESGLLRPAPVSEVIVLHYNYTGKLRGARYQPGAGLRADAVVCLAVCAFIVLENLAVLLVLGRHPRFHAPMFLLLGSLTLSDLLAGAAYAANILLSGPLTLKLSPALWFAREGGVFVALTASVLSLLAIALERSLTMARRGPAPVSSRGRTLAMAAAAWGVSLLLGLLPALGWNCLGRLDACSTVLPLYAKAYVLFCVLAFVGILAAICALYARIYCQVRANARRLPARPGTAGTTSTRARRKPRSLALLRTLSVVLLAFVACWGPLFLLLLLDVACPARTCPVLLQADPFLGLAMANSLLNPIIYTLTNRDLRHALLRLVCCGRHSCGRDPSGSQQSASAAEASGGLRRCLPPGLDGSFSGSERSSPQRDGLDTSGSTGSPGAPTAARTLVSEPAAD

Take `CCCCCCCCc1ccc(CC[C@@](N)(CO)COP(=O)(O)O)cc1`: the EC50 in test [1] was determined as 18.6 nM.
For `CCCCCCCCc1ccc([C@H]2C[C@H](CO)N[C@@H]2CO)cc1`, the Activity in test [2] was found to be 55%.
For the molecule `CCCCCCCCc1ccc([C@H]2C[C@H](CO)N[C@@H]2COP(=O)(O)O)cc1`, the 50% effective concentration (EC50) in test [3] was > 1000 nM; in test [4], > 1000 nM; in test [1] it was 347 nM; in test [5], 134 nM.
`CCCCCCCCc1ccc([C@H]2C[C@H](COP(=O)(O)O)N[C@@H]2CO)cc1`: the EC50 is > 1000 nM in test [3], > 1000 nM in test [4], 7.4 nM in test [1] and 10.2 nM in test [5].
Regarding `CCCCCCCCc1ccc([C@@H]2C[C@@H](CO)N[C@H]2CO)cc1`, the Activity in test [2] is < 0.1%.
With `CCCCCCCCCCCCC/C=C/[C@@H](O)[C@@H](N)COP(=O)(O)O`, the figures for the half-maximal effective concentration (EC50) in test [3], in test [4] and in test [1] were 0.55 nM, 1.6 nM and 7.9 nM, respectively.
As for `CCCCCCCCc1ccc([C@@H]2C[C@@H](CO)N[C@H]2COP(=O)(O)O)cc1`, the EC50 in test [3] is > 1000 nM; in test [4], > 1000 nM; in test [1], 33.1 nM; in test [5], 21.3 nM.
As to `CCCCCCCCCCCCC/C=C/[C@@H](O)[C@@H](N)CO`, the Activity in test [2] stood at 100%.
Turning to `CCCCCCCCc1ccc([C@@H]2C[C@@H](COP(=O)(O)O)N[C@H]2CO)cc1`, the EC50 in test [3] is > 1000 nM; in test [4], > 1000 nM; in test [1], 16.8 nM; in test [5], 5.8 nM.
Regarding `CCCCCCCCc1ccc(CCC(N)(CO)CO)cc1`, the Activity in test [2] came to 13%.
